Reference: publication PMC9320206, “Sanguinarine, identified as a natural alkaloid LSD1 inhibitor, suppresses lung cancer cell growth and migration” (Iranian Journal of Basic Medical Sciences, 2022)

Molecular target: T1, Lysine-specific demethylase 1 (LSD1) (Homo sapiens, UniProt O60341)
T1 construct: gene KDM1A; recombinant LSD1 (pET-28b-LSD1, expressed in BL21(DE3))
Assay: HRP/Amplex Red fluorescence demethylase assay with H3K4me2 peptide; no-enzyme counter-screen; […] dilution reversibility assay
Type: biochemical

Compound C[n+]1cc2c3c(ccc2c2ccc4cc5c(cc4c21)OCO5)OCO3 [sanguinarine] has an IC50 of 0.4 µM.
